Source: the NIST ThermoML archive (doi:10.1016/j.fluid.2014.10.044)
± gives the expanded uncertainty stated by the source.

Assay: xn = mol fraction of the nth substance listed
Conditions: 298.15 K, 101 kPa, Liquid; for viscosity: Concentric cylinders viscometry; for mass density: Vibrating tube method

viscosity (x2 = 0.25): 311.21 ± 19 mPa·s
viscosity (x2 = 0.5): 803.76 ± 74 mPa·s
mass density (x2 = 0.25): 1266.5 ± 0.9 kg/m3
mass density (x2 = 0.5): 1197.6 ± 1 kg/m3
SMILES: O=C(O)CO [2-hydroxyethanoic acid] + C[N+](C)(C)CCO.[Cl-]
